Measured values as given in patent publication US20240024291A1, “Uses of Dihydroorotate Dehydrogenase Inhibitors” (University of Maryland, Baltimore, priority 2022, published 2024).
pIC50: −log10 of the molar value.

Tests used:
[1] = system: 1079 glioblastoma neurosphere line; assay: CellTiter-Glo in vitro proliferation assay; format: cell-based; settings: Homo sapiens
Procedure: (§1) A Biospherix X3, hypoxic incubation system, was maintained at 37° C., 1% 02, 5% CO2, and 94% N2 (Biospherix, Ltd—Parish, NY) to conduct in vitro hypoxic experiments. Cells were plated, then incubated in normoxia overnight before transferring the culture dishes to hypoxia for the duration indicated in the main text.
(§2) Glioblastoma neurosphere lines were plated in 96-well plates at 25,000 cells per well in […] of media and treated with compound 1 in the presence or absence of 100 μM uridine. Cell Titer-Glo® Luminescent Cell Viability Assay (Promega, Madison, WI, USA) was performed 72 hours after treatment. Luminescence was determined using a Cytation 5 reader and Gen5 software package (BioTek, Winooski, VT, USA).
(§3) The compound's efficacy was examined against a collection of genetically diverse patient-derived GSC lines in vitro. The IC50 profiles of compound 1 in the seven GSC lines tested were established using the CellTiter-Glo® reagent and calculated with GraphPad software.

[2] = system: 3691 glioblastoma neurosphere line; assay: CellTiter-Glo in vitro proliferation assay; format: cell-based; settings: Homo sapiens, 72 h, 3691 (table prints 3639)
Procedure: as §1, §2, §3

[3] = system: Mayo15 glioblastoma neurosphere line; assay: CellTiter-Glo in vitro proliferation assay; format: cell-based; settings: Homo sapiens
Procedure: as §1, §2, §3

[4] = system: Mayo39 glioblastoma neurosphere line; assay: CellTiter-Glo in vitro proliferation assay; format: cell-based; settings: Homo sapiens
Procedure: as §1, §2, §3

[5] = system: Mayo6 glioblastoma neurosphere line; assay: CellTiter-Glo in vitro proliferation assay; format: cell-based; settings: Homo sapiens
Procedure: as §1, §2, §3

[6] = system: 913 PIP-FUCCI reporter cells; assay: PIP-FUCCI in vitro cell cycle assay; format: cell-based, human; settings: for percentage of cells in the S phase: 48 hours (DMSO 20%)
Procedure: To monitor cell cycle progression, 913 glioblastoma neurosphere-derived cells expressing pLenti-PGK-Neo-PIP-FUCCI were first cloned. pLenti-PGK-Neo-PIP-FUCCI was from Jean Cook (Addgene plasmid #118616; n2t.net/addgene:118616; RRID:Addgene_118616) (52). Cells were then treated with either 0, 10 nM, or 100 nM compound 1 for 48 hours, stained with 1 mg/mL Hoechst for 2 hours, and visualized by direct fluorescence microscopy. A twenty-four-hour treatment with […] of the DNA replication inhibitor Aphidicolin was used as a positive control for S-phase arrest. A collection of five images per well, each set containing at least 10,000 cells, was captured for each treatment. Each treatment was performed in technical quadruplicates, and each experiment was repeated twice on different days. Images were acquired using Cytation 5 plate reader (BioTek, Winooski, VT, USA) and scored using Gen5 software. Cell cycle phases were determined by x/y plot of mVenus and mCherry intensities per nucleus and gating boundaries on the Aphidicolin control.
It has been reported that depletion of pyrimidine nucleotides leads to incomplete DNA replication and elicits a stress response that blocks cell cycle progression. […] The original design was developed in 2008 by Miyawaki and colleagues (51).

[7] = system: 08-387 neurosphere line transduced with EGFRvIll or GFP; assay: Resistance assay, EGFRvIll or GFP transduced cells; format: cell-based, human; design: dose or concentration left out as unconfirmed
Procedure: (§4) Ten thousand 08-387 or 913 glioblastoma cells per well were seeded in a 96 well plate. Post 24 hr plating, 08-387 and 913 cells were treated with a varying dosage of compound 1 or with a varying dosage of gemcitabine alone or with 100 nM of compound 1. Post 72 hr of treatment, cell viability was calculated on Alamar blue absorbance reading.
(§5) The pLV[Expressior]-mCherry:T2A:Hygro-EF1A>Luc2 (Addgene Plasmid #174665) and pLV[Exp]-Bsd-EFS>EGFRvIll:T2A:TurboGFP (Addgene Plasmid #189841) lentivirus plasmids were designed by us and constructed by VectorBuilder. These plasmids are available at Addgene.
(§6) To further evaluate the potential role of EGFR in compound 1 resistance, the 913 and 08-387 neurosphere lines were transduced with lentiviruses encoding EGFRvIll or GFP (as control) and these neurospheres were challenged with a relatively high dose of 1 mM compound 1.

[8] = system: 913 neurosphere line transduced with EGFRvIll or GFP; assay: Resistance assay, EGFRvIll or GFP transduced cells; format: cell-based, human; design: dose or concentration left out as unconfirmed
Procedure: as §4, §5, §6

[9] = system: 08-387 orthotopic xenografts; assay: Orthotopic glioblastoma xenograft, drug treatment; format: in vivo
Procedure: (§7) Experiments with animals were performed in compliance with institutional guidelines and regulations. Four- to six-week-old male and female NCG mice (NOD-Prkdcem26Cd52112rgem26Cd22/NjuCrl, Charles River Laboratory, Wilmington, MA) were used in all experiments in approximately equal numbers of each sex in each experimental group. The 08-387 m-Cherry Luciferase or 913 Luciferase expressing cells (1×10 5) were stereotactically injected into the right striatum as previously described (30). Two weeks after the injection of the cells, tumor growth was monitored with bioluminescence imaging using an IVIS Spectrum imaging system equipped with the Living Image software package (Perkin Elmer). Male and female mice harboring orthotopic xenografts with Radiance (p/sec/cm2/sr) equal to or greater than 1x10 6 were randomly assigned to the control or compound 1 treatment groups. Mice were dosed daily by oral gavage with either vehicle (90/10 Kollisolv® PEG400/EtOH solution) or 3 mg/kg compound 1. Animal weight was monitored daily, and mice were sacrificed when they became symptomatic.
(§8) To generate equivalent treatment groups and facilitate the tracking of xenograft growth, these cells were transduced with a mCherry:Luciferase reporter. An equal number of male and female immunodeficient mice were injected, and overall survival was the primary endpoint. Mice were imaged weekly starting two weeks after the injection and then randomized to the two treatment groups when tumor Radiance surpassed 1x10 6 photons/sec/cm^2/sr (sr=units of solid angle or steradian). Compound 1 (3 mg/kg) or vehicle were delivered daily by oral gavage.

[10] = system: 913 orthotopic xenografts; assay: Orthotopic glioblastoma xenograft, drug treatment; format: in vivo
Procedure: as §7, §8

With CCn1c(CO)nn(-c2cc(O[C@@H](C)C(F)(F)F)c(C(=O)Nc3c(F)cccc3Cl)cc2F)c1=O [Compound 1, N-(2-chloro-6-fluorophenyl)-4-[4-ethyl-4,5-dihydro-3-(hydroxymethyl)-5-oxo-1H-1,2,4-triazol-1-yl]-5-fluoro-2-[(1S)-2,2,2-trifluoro-1-methylethoxy]-benzamide] as the compound, how does the pIC50 [1]; 1079 read?
Its pIC50 is 5.92.

What about the pIC50 ([1]; 72 h, 1079, hypoxia, 72 hours) of the same compound?
Its pIC50 is 4.63.

And the pIC50 ([1]; 72 h, 1079, normoxia, 72 hours)?
The pIC50 was 5.92.

And the pIC50 ([2]; hypoxia)?
Its pIC50 is 7.91.

What about the pIC50 ([2]; normoxia) of the same compound?
The pIC50 was 8.13.

And the pIC50 ([3]; 72 h, Mayo15, hypoxia)?
Its pIC50 is 3.84.

And the pIC50 ([3]; 72 h, Mayo15, normoxia)?
Its pIC50 is 4.19.

And the pIC50 ([3]; Mayo15)?
Its pIC50 is 4.19.

And the pIC50 ([4]; 72 h, Mayo39, hypoxia)?
The pIC50 was 3.82.

What about the pIC50 ([4]; 72 h, Mayo39, normoxia) of the same compound?
The pIC50 was 3.74.

And the pIC50 ([4]; Mayo39)?
The pIC50 was 3.74.

What about the pIC50 ([5]; 72 h, Mayo6, hypoxia) of the same compound?
Its pIC50 is 3.64.

And the pIC50 ([5]; 72 h, Mayo6, normoxia)?
Its pIC50 is 3.79.

And the pIC50 ([5]; Mayo6)?
Its pIC50 is 3.79.

What about the “percentage of cells in the S phase” value ([6]; 10 nM) of the same compound?
The value was 70%.

What about the “percentage of cells in the S phase” value ([6]; 100 nM) of the same compound?
The value was 64%.

And the “cell cycle effects with uridine supplementation” value ([6]; uridine supplementation)?
The value was “completely blocked”.

What about the surviving cell fraction ([7]; 08-387 EGFRvIll) of the same compound?
The surviving cell fraction was 36.7%.

And the surviving cell fraction ([7]; 08-387 GFP (control))?
The surviving cell fraction was 4%.

And the surviving cell fraction ([8]; 913 EGFRvIll)?
Its surviving cell fraction is 55.2%.

What about the surviving cell fraction ([8]; 913 GFP (control)) of the same compound?
The surviving cell fraction was 27.9%.

And the “tumor radiance compared to controls” value ([9]; 08-387, week 1, 3 mg/kg daily oral)?
The value was “roughly the same”.

And the “tumor radiance lower compared to controls” value ([9]; 08-387, week 2, 3 mg/kg daily oral)?
The value was 47%.

What about the “tumor radiance lower compared to controls” value ([9]; 08-387, week 3, 3 mg/kg daily oral) of the same compound?
The value was 75%.

And the “body weight / tolerability” value ([9]; 08-387 xenograft mice, 3 mg/kg daily oral gavage)?
Its value is “no significant weight loss”.

What about the “median survival from initiation of treatment” value ([9]; 08-387 xenografts, 3 mg/kg daily oral (vehicle 12 days)) of the same compound?
Its value is 19 days.

What about the “increase in median survival” value ([9]; 08-387 xenografts, vs vehicle) of the same compound?
The value was 58%.

And the “tumor radiance lower than in vehicle controls” value (from here on “tumor radiance lower than”) ([10]; 913, week 1, 3 mg/kg daily oral)?
The value was 6.5%.

And the “tumor radiance lower than” value ([10]; 913, week 2, 3 mg/kg daily oral)?
Its value is 41%.

What about the “tumor radiance lower than” value ([10]; 913, week 3, 3 mg/kg daily oral) of the same compound?
Its value is 52%.

What about the “body weight / tolerability” value ([10]; 913 xenograft mice, 3 mg/kg daily oral gavage) of the same compound?
Its value is “no significant weight loss”.

And the “median survival from initiation of treatment” value ([10]; 913 xenografts, 3 mg/kg daily oral (vehicle 32 days))?
Its value is 41 days.

And the “increase in median survival” value ([10]; 913 xenografts, vs vehicle)?
Its value is 28%.
